The target in data set [1] is T1, human integrin α5β1 (Homo sapiens, UniProt P05556+P08648).
T1 construct: purchased RnD (printed for the alanine-replacement peptide array, not for the ELISA itself)
Kind of data set: ITGA5 competition study (α5β1 binding to FN-coated plate, ELISA). Particulars: human recombinant α5β1 on FN-coated plate, increasing peptide concentrations. The method, then: To examine the affinity of the peptide to the target ITGA5, a 96 well MaxiSorp™ (Thermo Scientific) was coated with 100 μL FN (Advanced Biomatrix) at 1 μg/mL by overnight incubation at 4 °C. Next, the plate was washed with DPBS (Lonza) and blocked with 5% bovine serum albumin (BSA) in DPBS for at least 1 h at RT. In the meantime, mentioned concentrations of the peptides were mixed with 2 μg/mL human integrin α5β1 in DPBS with Mg^2+ and Ca^2+. The mixture was then set to rest for 30 min at RT. After blocking with 5% BSA, the plate was washed with DPBS. The mixture of integrin α5β1 and peptide was transferred to a well plate and incubated for 1 h at RT. Next, the plate was washed three times with PBS with 0.1% Tween 20 (PBS-T) and then mouse anti-human CD49e (RnD Systems) was added. After 1 h of incubation, plate was washed and the secondary peroxidase labeled antibody was added and incubated for 1 h at RT. After washing with PBS-T, the plate was quickly developed with 3,3′,5,5′-tetramethylbenzidine (TMB) (50 μL per well) and incubated for 5 min at RT in the dark. The reaction was stopped with 3 mol/L H2SO4 (50 μL per well) and the absorbance was measured at 450 nm with plate reader (Tecan).
Background: In an ELISA, binding on a coated surface is turned into a signal by an enzyme label.

Data set [2] concerns PANC-1 + PSC and MIA PaCa-2 + PSC co-injection xenograft tumors. The method, then: Six-week-old male CB17 SCID mice (Janvier Labs, Le Genest-Saint-Isle, France) were subcutaneously injected with a 2:1 mixture of 4 × 10^6 human PSCs and 2 × 10^6 PANC-1 or MIA PaCa-2 cells. Tumor growth was assessed twice a week. Tumor-bearing mice (±100 mm^3) were treated with phosphate buffered saline (PBS), cyAV3.3, gemcitabine, or combination of gemcitabine and cyAV3.3 intraperitoneally (i.p). Animals were euthanized, tumors and other organs were harvested and embedded in Cryomatrix (Thermo Scientific) before being snap frozen in cold 2-methyl butane (Thermo Scientific) and stored at −80 °C until analyses. […]
Immunohistochemical staining of mouse tumors
Tumors were cut into 7 μm thick sections and mounted on glass slides using Cryotome FSE (Thermo Scientific), dried, and fixed in acetone for 15 min. Tumor sections were rehydrated in PBS for 10 min then incubated with primary antibody diluted in PBS for 1 hour at RT. Antibodies […]
Next, slides were washed 3 times with PBS before incubation with secondary fluorescence-labeled antibody diluted in PBS. After 30 min of incubation, slides were washed with PBS and shielded with a DAPI -containing mounting medium. Images were made using a Hamamatsu NanoZoomer Digital slide scanner 2.0HT (Hamamatsu Photonics, New Jersey, […]

Data set [3] has as its system hPSCs. Description: Cell viability, Alamar blue assay. It counts as cell-based, human. The method, then:
We investigated the inhibitory effect of both cyclic and linear peptides on PSC activation and signaling. To achieve this, PSCs were seeded and treated with TGF-β and peptides for 48 h (protein expression) or 24 h (gene expression). We also tested the effect of the peptide on the cell viability using Alamar blue assay and found no toxicity (Supporting Information Fig. S3A). […] To quantitate that, we performed Western blot analysis and confirmed the observed effect via immunostaining (Fig. 2B and C; Fig. S3B). The details of the antibodies used can be found in Supporting Information Table S2. […] After obtaining these effects, we focused on cyAV3.3 and examined its inhibitory effects on TGF-β1-stimulated PSCs using qPCR and an RT[2] profiler PCR array for ECM and adhesion receptors (Fig. 2D). […] The details of primers for all genes can be found in Supporting Information Table S3. […] In contrast, cyAV3.3 induced the gene expression of ECM-degrading proteins such as MMP10 and ADAMTS-13 (Supporting Information Fig. S4).
A general note: Resazurin is reduced to fluorescent resorufin, in cell work by metabolically active cells.

The test system of data set [4] is TGF-β treated PSCs. Description: Cell adhesion competition study (PSC attachment to FN-coated plate, crystal violet). In kind it is cell-based, human. The conditions noted are these: 50 μmol/L peptide, 30 min pre-incubation 37 °C, 1 h attachment, crystal violet absorbance 600 nm, n = 3. The method, then: To analyze the interaction of PSC and FN, a 96 suspension well plate was coated with 100 μL FN (Advanced Biomatrix, Carlsbad, CA, USA) at 1 μg/mL by overnight incubation at 4 °C. Next, the plate was washed with DPBS (Lonza) and blocked with 5% bovine serum albumin (BSA) in DPBS for at least 1 h at RT. In the meantime, a cell suspension of 200,000 cells/mL of TGF-β treated PSCs in DPBS with 2 mmol/L Ca^2+ and 2 mmol/L Mg^2+ was treated with 50 μmol/L AV3.3 or cyAV3.3 and incubated for 30 min at 37 °C. After washing the plate with DPBS, 100 μL cell suspension was added to each well and then set to rest for 1 h at RT. The plate was then washed with DPBS to remove unattached cells. […] Next, cells were stained with 0.1% (w/v) crystal violet (Sigma) in 25% methanol at RT. After 20 min, cells were washed with water and lysed with 0.5% (w/v) SDS. The degree of cell attachment was measured by the absorbance of the crystal violet at 600 nm using Tecan Infinite M200 plate reader (Tecan, Mannendorf, Switzerland). In other plate, cells were washed with DPBS after fixation and then stained with DAPI. Images were developed using EVOS fluorescence microscope (Thermo Scientific).

The nature of data set [5]: Peptide stability in human plasma. The conditions noted are these: 20 µmol/L peptide, 50% human plasma, 37 °C, 1, 2 and 24 h, TCA precipitation, RP-HPLC UV 280 nm. In kind it is in vitro ADME. The method, then: To evaluate the stability, 20 µmol/L peptide was incubated in 50% human plasma at biological temperature 37 °C for 1, 2, and 24 h. After incubation, plasma was precipitated by adding equal volume of 4% trichloroacetic acid (TCA) and rested on ice for 10 min. As control (or 0h), precipitation was performed immediately after mixing the peptide and plasma. Supernatant was collected after centrifugation at 13,300 × g and assessed using reversed phase high performance liquid chromatography (HPLC) with 5%, 95%, and 99.9% acetonitrile in de-gassed water with 0.1% trifluoroacetic acid as eluents. The remaining peptide was analyzed at a wavelength 280 nm.
Quantitative real-time PCR […]
The next day, the medium […]
was changed with 0% FBS Stellate Cell medium to starve hPSCs for 24 h. Subsequently, hPSCs were incubated with 5 ng/mL TGF-β1 and peptide for 48 h to examine the effect on protein expression of different markers such as α-SMA and collagen-1. Cells were lysed using 1× blue loading buffer containing 1× DTT reducing agent (Cell Signaling Technology) and homogenized using ultrasonication. Protein lysates were separated on a 4%–20% Tris-Glycine gel (Thermo Scientific) and then transferred onto a PVDF membrane (Thermo Scientific). […]

Peptide text beside a SMILES is read from it.

Take `C[C@@H]1NC(=O)[C@H](CCCNC(=N)N)NC(=O)[C@H](Cc2ccc(O)cc2)NC(=O)[C@H](Cc2ccc(O)cc2)NC(=O)[C@H](CCCNC(=N)N)NC(=O)CNC(=O)[C@H](CCCCN)NC(=O)[C@H](Cc2ccc(O)cc2)NC(=O)[C@H]([C@@H](C)O)NC1=O` [cyAV3.3] (cyclo(ATYKGRYYR)): the “blocking of FN-α5β1 interaction, cyclic versus linear” value in data set [1] is recorded as “blocked the interaction significantly stronger than AV3.3”. For the same molecule, in data set [2] (PANC-1 + PSC and MIA PaCa-2 + PSC co-injection xenografts, i.p. treatment, n = 4 per group per tumor type), the “reduction of tumor size / tumor growth” value is listed as roughly 30%. Moreover, in data set [2] (co-injection xenograft mice, i.p. treatment), the “signs of toxicity (body mass, organ mass)” value is recorded as “did not show any obvious signs of toxicity”. Further, the “tumor blood vessel (CD31+) lumen diameter” value in data set [2] (immunofluorescence, co-injection xenograft tumors) is listed as “larger lumen diameter compared to the control tumors”. Further, in data set [3], the “effect on cell viability” value is given as “no toxicity”. Besides, in data set [4], the “blocking of the binding of PSC to FN” value is on record as “blocked the binding of PSC to FN significantly higher than AV3.3”. Moreover, the “stability of the peptides in human plasma” value in data set [5] was “significant improvement in the stability”.
